Values of other authors in patent US12144787B2, “Method of treating patients with a mutation in cyclin-dependent kinase-like 5 (CDKL5)” (ZOGENIX INTERNATIONAL LIMITED, priority 2019, dated 2024).

Legend:
[1] = system: compulsive respiratory stereotypies; settings: open label, 8 children; subset of patients
[2] = system: pattern sensitivity-induced seizures; settings: one child, seizures resistant to anticonvulsive treatment
[3] = system: self-induced photosensitive seizures; settings: four cases; patients staring into bright lights or the sun
[4] = system: refractory epilepsy with self-induced seizures; settings: children with refractory epilepsy; dose 0.5 to 1 mg/kg/day

In the case of `CCNC(C)Cc1cccc(C(F)(F)F)c1` (racemic) [fenfluramine, (RS)—N-ethyl-1-[3-(trifluoromethyl)phenyl]propan-2-amine], the “effect on compulsive respiratory stereotypies” value [1] is given as “some beneficial effects”, the “effect on self-induced seizures” value [2] is given as “successfully terminated these self-induced seizures” and the “response of self-induced photosensitive seizures to treatment” value [3] is given as “responded to treatment”. For the same compound, the “number of seizures experienced by the patients” value [4] was “reduction in the number of seizures”.
